Target: T1, LRRK2 wild type (recombinant human, catalytic domain amino acids 970-2527, GST-tagged) (Homo sapiens, UniProt Q5S007)
T1 construct: The wild type used was recombinant human, catalytic domain (amino acids 970-2527) GST-tagged, expressed in insect cells; GST; purchased Invitrogen Corporation PV4873; host or cells: insect cells
Experiment: LRRK2 wild type protein kinase assay ([γ-33P] ATP, peptide substrate […]), IC50
Format: biochemical
Details: LRRK2 (variant not given); read-out: Potency score, LRRK2 IC50
Summary of the method: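 Insect-cell-expressed enzyme (~5 nM), no activation, incubated 180 min at ~21 °C in 50 mM Tris-HCl pH 7.5, 0.1 mM EGTA, 1 mM DTT, 10 mM MgCl2 with 100 μM peptide substrate and [γ-33P]ATP. Reaction stopped with orthophosphoric acid, captured on P81 filters and counted; IC50 from 10 concentrations in duplicate.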

T1 sequence (Q5S007 970-2527): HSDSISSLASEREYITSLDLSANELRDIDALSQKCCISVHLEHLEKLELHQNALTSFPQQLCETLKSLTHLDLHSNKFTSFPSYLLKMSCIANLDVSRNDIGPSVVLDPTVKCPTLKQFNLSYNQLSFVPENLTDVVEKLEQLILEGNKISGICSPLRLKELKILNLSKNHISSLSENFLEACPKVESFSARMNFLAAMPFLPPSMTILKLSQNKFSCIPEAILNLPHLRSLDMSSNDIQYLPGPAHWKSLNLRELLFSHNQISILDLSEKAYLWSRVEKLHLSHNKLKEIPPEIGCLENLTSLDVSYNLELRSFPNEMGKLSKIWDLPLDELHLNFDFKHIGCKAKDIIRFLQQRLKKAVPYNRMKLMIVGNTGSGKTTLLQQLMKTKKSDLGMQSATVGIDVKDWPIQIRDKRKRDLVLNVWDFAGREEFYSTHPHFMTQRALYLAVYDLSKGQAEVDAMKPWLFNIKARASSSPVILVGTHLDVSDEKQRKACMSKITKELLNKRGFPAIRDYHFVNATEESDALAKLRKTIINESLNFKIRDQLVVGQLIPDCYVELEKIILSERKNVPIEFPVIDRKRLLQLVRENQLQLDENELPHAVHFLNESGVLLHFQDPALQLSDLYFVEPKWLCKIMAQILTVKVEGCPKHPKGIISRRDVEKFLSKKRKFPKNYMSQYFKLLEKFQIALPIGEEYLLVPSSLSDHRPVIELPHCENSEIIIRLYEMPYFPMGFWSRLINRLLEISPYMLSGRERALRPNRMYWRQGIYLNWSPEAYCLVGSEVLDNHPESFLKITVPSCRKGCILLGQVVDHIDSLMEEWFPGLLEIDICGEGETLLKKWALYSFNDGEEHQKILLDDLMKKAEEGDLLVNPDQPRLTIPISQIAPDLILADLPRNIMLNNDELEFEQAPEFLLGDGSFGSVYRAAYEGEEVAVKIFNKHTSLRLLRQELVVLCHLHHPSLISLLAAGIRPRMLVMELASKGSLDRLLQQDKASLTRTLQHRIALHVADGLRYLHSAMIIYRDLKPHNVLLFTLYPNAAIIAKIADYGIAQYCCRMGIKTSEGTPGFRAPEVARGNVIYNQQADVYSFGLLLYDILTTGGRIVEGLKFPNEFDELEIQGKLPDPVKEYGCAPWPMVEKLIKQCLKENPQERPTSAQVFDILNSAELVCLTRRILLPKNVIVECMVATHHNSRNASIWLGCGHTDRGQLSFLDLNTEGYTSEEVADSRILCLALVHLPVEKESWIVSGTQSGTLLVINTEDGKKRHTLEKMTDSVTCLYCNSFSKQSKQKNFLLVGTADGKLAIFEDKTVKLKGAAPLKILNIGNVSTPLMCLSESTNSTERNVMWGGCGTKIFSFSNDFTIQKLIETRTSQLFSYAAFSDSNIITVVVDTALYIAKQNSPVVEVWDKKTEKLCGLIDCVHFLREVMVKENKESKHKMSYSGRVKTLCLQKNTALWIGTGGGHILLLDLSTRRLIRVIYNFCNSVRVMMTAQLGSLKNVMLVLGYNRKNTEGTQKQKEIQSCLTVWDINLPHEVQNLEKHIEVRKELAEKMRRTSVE

| Compound | IC50 |
| --- | --- |
| O=C(Nc1ccc(CCc2n[nH]c3ccnc(NC4CCCCC4)c23)cc1)c1ccc2nccnc2c1 [Example 270, Quinoxaline-6-carboxylic acid {4-[2-(4-cyclohexylamino-1H-pyrazolo[4,3-c]pyridin-3-yl)-ethyl]-phenyl}-amide] | < 100 nM |
| O=C(CCc1n[nH]c2ccnc(NC3CCCCC3)c12)N1CCC(c2ccccc2)CC1 [Example 204, 3-(4-Cyclohexylamino-1H-pyrazolo[4,3-c]pyridin-3-yl)-1-(4-phenyl-piperidin-1-yl)-propan-1-one] | < 100 nM |
| Cc1n[nH]c2ccnc(NCCCn3cccn3)c12 [Example 345, (3-Methyl-1H-pyrazolo[4,3-c]pyridin-4-yl)-(3-pyrazol-1-yl-propyl)-amine] | 1000 to 10000 nM |
| CNC(=O)CCc1n[nH]c2ccnc(NC3CCCCC3)c12 [Example 210, 3-(4-Cyclohexylamino-1H-pyrazolo[4,3-c]pyridin-3-yl)-N-methyl-propionamide] | 1000 to 10000 nM |
| Cc1n[nH]c2ccnc(NCCNc3ccccc3)c12 [Example 337, N-(3-Methyl-1H-pyrazolo[4,3-c]pyridin-4-yl)-N′-phenyl-ethane-1,2-diamine] | 1000 to 10000 nM |
| c1ccc(-c2nnc(CCc3n[nH]c4ccnc(NC5CCCCC5)c34)o2)cc1 [Example 216, Cyclohexyl-{3-[2-(5-phenyl-1,3,4-oxadiazol-2-yl)-ethyl]-1H-pyrazolo[4,3-c]pyridin-4-yl}-amine] | 100 to 1000 nM |
| COc1ccccc1NC(=O)c1ccc(Nc2nccc3[nH]nc(C)c23)cc1 [Example 111, N-(2-Methoxy-phenyl)-4-(3-methyl-1H-pyrazolo[4,3-c]pyridin-4-ylamino)-benzamide] | 1000 to 10000 nM |
| O=C(NCc1ccco1)c1ccc(CCc2n[nH]c3ccnc(NC4CCCCC4)c23)cc1 [Example 250, 4-[2-(4-Cyclohexylamino-1H-pyrazolo[4,3-c]pyridin-3-yl)-ethyl]-N-furan-2-ylmethyl-benzamide] | < 100 nM |
| Cc1n[nH]c2ccnc(-c3nccs3)c12 [Example 130, 3-Methyl-4-thiazol-2-yl-1H-pyrazolo[4,3-c]pyridine] | 100 to 1000 nM |
| Cc1n[nH]c2ccnc(Nc3ccc4nc[nH]c4c3)c12 [Example 81, (3H-Benzimidazol-5-yl)-(3-methyl-1H-pyrazolo[4,3-c]pyridin-4-yl)-amine] | 100 to 1000 nM |
| CC[C@@H](C)Nc1nccc2[nH]nc(C)c12 [Example 37, ((R)-sec-Butyl)-(3-methyl-1H-pyrazolo[4,3-c]pyridin-4-yl)-amine] | 1000 to 10000 nM |
| Cc1n[nH]c2ccnc(Nc3cccc(OC(C)C)c3)c12 [Example 341, (3-Isopropoxy-phenyl)-(3-methyl-1H-pyrazolo[4,3-c]pyridin-4-yl)-amine] | 1000 to 10000 nM |
| Cc1n[nH]c2ccnc(Nc3ccc(C(=O)N4CCC(F)(F)CC4)cc3)c12 [Example 110, (4,4-Difluoro-piperidin-1-yl)-[4-(3-methyl-1H-pyrazolo[4,3-c]pyridin-4-ylamino)-phenyl]-methanone] | 100 to 1000 nM |
| Cc1n[nH]c2ccnc(NCCc3ccccn3)c12 [Example 2, (3-Methyl-1H-pyrazolo[4,3-c]pyridin-4-yl)-(2-pyridin-2-yl-ethyl)-amine] | 1000 to 10000 nM |
| O=C(CCc1n[nH]c2ccnc(NC3CCCCC3)c12)N1CCC[C@@H](c2ccccc2)C1 [Example 190, 3-(4-Cyclohexylamino-1H-pyrazolo[4,3-c]pyridin-3-yl)-1-((S)-3-phenyl-piperidin-1-yl)-propan-1-one] | 100 to 1000 nM |
| Clc1cccc(-c2n[nH]c3ccnc(NC4CCCCC4)c23)c1 [Example 144, [3-(3-Chloro-phenyl)-1H-pyrazolo[4,3-c]pyridin-4-yl]-cyclohexyl-amine] | 100 to 1000 nM |
| COc1ccc(-c2n[nH]c3ccnc(NC4CCCCC4)c23)cc1Cl [Example 140, [3-(3-Chloro-4-methoxy-phenyl)-1H-pyrazolo[4,3-c]pyridin-4-yl]-cyclohexyl-amine] | 100 to 1000 nM |
| O=C(CCc1n[nH]c2ccnc(NC3CCCCC3)c12)N1CCOC(c2ccccc2)C1 (stereo not drawn) [Example 205, 3-(4-Cyclohexylamino-1H-pyrazolo[4,3-c]pyridin-3-yl)-1-(2-phenyl-morpholin-4-yl)-propan-1-one] | 100 to 1000 nM |
| O=C(Nc1cccc(CCc2n[nH]c3ccnc(NC4CCCCC4)c23)c1)C1CCCC1 [Example 225, Cyclopentanecarboxylic acid {3-[2-(4-cyclohexylamino-1H-pyrazolo[4,3-c]pyridin-3-yl)-ethyl]-phenyl}-amide] | < 100 nM |
| CN1CCC(C(=O)Nc2ccc(CCc3n[nH]c4ccnc(NC5CCCCC5)c34)cc2)CC1 [Example 271, 1-Methyl-piperidine-4-carboxylic acid {4-[2-(4-cyclohexylamino-1H-pyrazolo[4,3-c]pyridin-3-yl)-ethyl]-phenyl}-amide] | 100 to 1000 nM |
| CN(C)C1CCN(C(=O)CCc2n[nH]c3ccnc(NC4CCCCC4)c23)CC1 [Example 174, 3-(4-Cyclohexylamino-1H-pyrazolo[4,3-c]pyridin-3-yl)-1-(4-dimethylamino-piperidin-1-yl)-propan-1-one] | 1000 to 10000 nM |

| Compound | IC50 |
| --- | --- |
| COC(=O)c1ccc(CCc2n[nH]c3ccnc(NC4CCCCC4)c23)cc1 [Example 232, 4-[2-(4-Cyclohexylamino-1H-pyrazolo[4,3-c]pyridin-3-yl)-ethyl]-benzoic acid methyl ester] | 100 to 1000 nM |
| Cc1n[nH]c2ccnc(NCCCn3ccnc3)c12 [Example 15, (3-Imidazol-1-yl-propyl)-(3-methyl-1H-pyrazolo[4,3-c]pyridin-4-yl)-amine] | 100 to 1000 nM |
| CCOc1nccc2[nH]nc(C)c12 [Example 124, 4-Ethoxy-3-methyl-1H-pyrazolo[4,3-c]pyridine] | 100 to 1000 nM |
| c1cc2[nH]nc(N3CCCC3)c2c(OC2CCCCC2)n1 [Example 237, 4-Cyclohexyloxy-3-pyrrolidin-1-yl-1H-pyrazolo[4,3-c]pyridine] | 100 to 1000 nM |
| Cc1n[nH]c2ccnc(Nc3ccc(C(=O)N4CCOCC4)cc3)c12 [Example 112, [4-(3-Methyl-1H-pyrazolo[4,3-c]pyridin-4-ylamino)-phenyl]-morpholin-4-yl-methanone] | 100 to 1000 nM |
| Cc1n[nH]c2ccnc(NCC3CCCO3)c12 (stereo not drawn) [Example 304, (3-Methyl-1H-pyrazolo[4,3-c]pyridin-4-yl)-(tetrahydro-furan-2-ylmethyl)-amine] | 1000 to 10000 nM |
| c1ccc(-c2n[nH]c3ccnc(NC4CCCCC4)c23)cc1 [Example 136, Cyclohexyl-(3-phenyl-1H-pyrazolo[4,3-c]pyridin-4-yl)-amine] | 100 to 1000 nM |
| Cc1n[nH]c2ccnc(O[C@@H]3CCC[C@@H]3C)c12 (racemic) [Example 293, Cis-3-Methyl-4-(2-methyl-cyclopentyl-oxy)-1H-pyrazolo [4,3-c]pyridine] | 100 to 1000 nM |
| Cc1n[nH]c2ccnc(OCCC(F)(F)F)c12 [Example 295, 3-Methyl-4-(3,3,3-trifluoro-propoxy)-1H-pyrazolo[4,3-c]pyridine] | 100 to 1000 nM |
| Cc1n[nH]c2ccnc(-c3ccccc3)c12 [Example 56, 3-Methyl-4-phenyl-1H-pyrazolo[4,3-c] pyridine] | 1000 to 10000 nM |
| Cc1n[nH]c2ccnc(NC3CCS(=O)(=O)CC3)c12 [Example 46, (1,1-Dioxo-hexahydro-1λ^6-thiopyran-4-yl)-(3-methyl-1H-pyrazolo[4,3-c]pyridin-4-yl)-amine] | 100 to 1000 nM |
| Cc1n[nH]c2ccnc(-c3ccc(C#N)cc3)c12 [Example 54, 4-(3-Methyl-1H-pyrazolo[4,3-c]pyridin-4-yl)-benzonitrile] | 1000 to 10000 nM |
| Cc1n[nH]cc1Nc1nccc2[nH]nc(C)c12 [Example 82, (3-Methyl-1H-pyrazolo[4,3-c]pyridin-4-yl)-(3-methyl-1H-pyrazol-4-yl)-amine] | 1000 to 10000 nM |
| Cc1n[nH]c2ccnc(Nc3ccc(N4CCN(C)CC4)cc3)c12 [Example 86, [4-(4-Methyl-piperazin-1-yl)-phenyl]-(3-methyl-1H-pyrazolo[4,3-c]pyridin-4-yl)-amine] | 1000 to 10000 nM |
| O=C(CCc1n[nH]c2ccnc(NC3CCCCC3)c12)NC1CC1 [Example 171, 3-(4-Cyclohexylamino-1H-pyrazolo[4,3-c]pyridin-3-yl)-N-cyclopropyl-propionamide] | 1000 to 10000 nM |
| Cc1n[nH]c2ccnc(O[C@H]3C[C@@H]4CC[C@H]3C4)c12 (racemic) [Example 291] | 100 to 1000 nM |
| O=C(CCc1n[nH]c2ccnc(NC3CCCCC3)c12)N1CCC(O)(c2ccccc2)CC1 [Example 176, 3-(4-Cyclohexylamino-1H-pyrazolo[4,3-c]pyridin-3-yl)-1-(4-hydroxy-4-phenyl-piperidin-1-yl)-propan-1-one] | 100 to 1000 nM |
| O=C(c1ccc(CCc2n[nH]c3ccnc(NC4CCCCC4)c23)cc1)N1CCOCC1 [Example 253, {4-[2-(4-Cyclohexylamino-1H-pyrazolo[4,3-c]pyridin-3-yl)-ethyl]-phenyl}-morpholin-4-yl-methanone] | < 100 nM |
| Cc1n[nH]c2ccnc(O[C@@H]3C[C@@H]4CC[C@H]3C4)c12 (racemic) [Example 296] | < 100 nM |
| Cc1ccc(Nc2nccc3[nH]nc(C)c23)cn1 [Example 344, (3-Methyl-1H-pyrazolo[4,3-c]pyridin-4-yl)-(6-methyl-pyridin-3-yl)-amine] | 1000 to 10000 nM |
| Cc1n[nH]c2ccnc(NCc3ccccc3Cl)c12 [Example 315, (2-Chloro-benzyl)-(3-methyl-1H-pyrazolo[4,3-c]pyridin-4-yl)-amine] | 100 to 1000 nM |

From patent US20170320870A1 (Medical Research Council Technology, priority 2009, published 2017)
